{"source": "the supplement of paper PMC10307832", "experiment_in_all_cases": "relative viability (nuclei count vs DMSO), 5 days (fraction); higher = more cells survive", "key": {"NCI-H2170": {"system": "NCI-H2170", "method_in_brief": "(§1)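 Medians of duplicate plates are given as relative viability. That measure is the nuclei count in treated wells divided by the count in vehicle wells. Counts were taken on 4× images of lung cancer cell lines in 1536-well plates, 5 days after pin-tool dosing the day after seeding with one drug alone or a fixed anchor-drug dose plus five library-drug doses (not always all listed) in √10 steps.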"}, "NCI-H441": {"system": "NCI-H441", "method_in_brief": "as §1"}, "NCI-H2023": {"system": "NCI-H2023", "method_in_brief": "as §1"}, "LC-2-ad": {"system": "LC-2-ad", "method_in_brief": "as §1"}, "SW 900": {"system": "SW 900", "method_in_brief": "as §1"}, "NCI-H650": {"system": "NCI-H650", "method_in_brief": "as §1"}, "NCI-H1651": {"system": "NCI-H1651", "method_in_brief": "as §1"}, "NCI-H2009": {"system": "NCI-H2009", "method_in_brief": "as §1"}, "EPLC-272H": {"system": "EPLC-272H", "method_in_brief": "as §1"}, "NCI-H727": {"system": "NCI-H727", "method_in_brief": "as §1"}, "NCI-H23": {"system": "NCI-H23", "method_in_brief": "as §1"}, "LOU-NH91": {"system": "LOU-NH91", "method_in_brief": "as §1"}, "H3255": {"system": "H3255", "method_in_brief": "as §1"}, "PC-3 [JPC-3]": {"system": "PC-3 [JPC-3]", "method_in_brief": "as §1"}, "HARA": {"system": "HARA", "method_in_brief": "as §1"}, "NCI-H2085": {"system": "NCI-H2085", "method_in_brief": "as §1"}, "NCI-H2087": {"system": "NCI-H2087", "method_in_brief": "as §1"}, "NCI-H1650": {"system": "NCI-H1650", "method_in_brief": "as §1"}, "UMC-11": {"system": "UMC-11", "method_in_brief": "as §1"}, "NCI-H1975": {"system": "NCI-H1975", "method_in_brief": "as §1"}, "SW 1573": {"system": "SW 1573", "method_in_brief": "as §1"}, "NCI-H838": {"system": "NCI-H838", "method_in_brief": "as §1"}}, "data": [{"smiles": "CN1CCN(CCOc2cc(OC3CCOCC3)c3c(Nc4c(Cl)ccc5c4OCO5)ncnc3c2)CC1", "note": "[Saracatinib] + Nc1ncn([C@H]2C[C@H](O)[C@@H](CO)O2)c(=O)n1 [Decitabine] (partner 2 µM)", "values": [{"measurement": "relative viability", "setting": "NCI-H2170; first compound 0.02 µM", "value": 0.453}, {"measurement": "relative viability", "setting": "NCI-H2170; first compound 0.2 µM", "value": 0.412}, {"measurement": "relative viability", "setting": "NCI-H2170; first compound 0.6325 µM", "value": 0.452}, {"measurement": "relative viability", "setting": "NCI-H2170; first compound 2 µM", "value": 0.415}, {"measurement": "relative viability", "setting": "NCI-H441; first compound 0.02 µM", "value": 0.221}, {"measurement": "relative viability", "setting": "NCI-H441; first compound 0.2 µM", "value": 0.232}, {"measurement": "relative viability", "setting": "NCI-H441; first compound 0.6325 µM", "value": 0.212}, {"measurement": "relative viability", "setting": "NCI-H441; first compound 2 µM", "value": 0.243}, {"measurement": "relative viability", "setting": "NCI-H2023; first compound 0.02 µM", "value": 0.245}, {"measurement": "relative viability", "setting": "NCI-H2023; first compound 0.2 µM", "value": 0.176}, {"measurement": "relative viability", "setting": "NCI-H2023; first compound 0.6325 µM", "value": 0.204}, {"measurement": "relative viability", "setting": "NCI-H2023; first compound 2 µM", "value": 0.222}, {"measurement": "relative viability", "setting": "LC-2-ad; first compound 0.02 µM", "value": 0.79}, {"measurement": "relative viability", "setting": "LC-2-ad; first compound 0.2 µM", "value": 0.751}, {"measurement": "relative viability", "setting": "LC-2-ad; first compound 0.6325 µM", "value": 0.779}, {"measurement": "relative viability", "setting": "LC-2-ad; first compound 2 µM", "value": 0.789}, {"measurement": "relative viability", "setting": "SW 900; first compound 0.02 µM", "value": 0.544}, {"measurement": "relative viability", "setting": "SW 900; first compound 0.2 µM", "value": 0.384}, {"measurement": "relative viability", "setting": "SW 900; first compound 0.6325 µM", "value": 0.399}, {"measurement": "relative viability", "setting": "SW 900; first compound 2 µM", "value": 0.635}, {"measurement": "relative viability", "setting": "NCI-H650; first compound 0.02 µM", "value": 0.319}, {"measurement": "relative viability", "setting": "NCI-H650; first compound 0.2 µM", "value": 0.3}, {"measurement": "relative viability", "setting": "NCI-H650; first compound 0.6325 µM", "value": 0.295}, {"measurement": "relative viability", "setting": "NCI-H650; first compound 2 µM", "value": 0.288}, {"measurement": "relative viability", "setting": "NCI-H1651; first compound 0.02 µM", "value": 0.734}, {"measurement": "relative viability", "setting": "NCI-H1651; first compound 0.2 µM", "value": 0.375}, {"measurement": "relative viability", "setting": "NCI-H1651; first compound 0.6325 µM", "value": 0.667}, {"measurement": "relative viability", "setting": "NCI-H1651; first compound 2 µM", "value": 0.626}, {"measurement": "relative viability", "setting": "NCI-H2009; first compound 0.02 µM", "value": 0.406}, {"measurement": "relative viability", "setting": "NCI-H2009; first compound 0.2 µM", "value": 0.35}, {"measurement": "relative viability", "setting": "NCI-H2009; first compound 0.6325 µM", "value": 0.35}, {"measurement": "relative viability", "setting": "NCI-H2009; first compound 2 µM", "value": 0.322}, {"measurement": "relative viability", "setting": "EPLC-272H; first compound 0.02 µM", "value": 0.388}, {"measurement": "relative viability", "setting": "EPLC-272H; first compound 0.2 µM", "value": 0.361}, {"measurement": "relative viability", "setting": "EPLC-272H; first compound 0.6325 µM", "value": 0.442}, {"measurement": "relative viability", "setting": "EPLC-272H; first compound 2 µM", "value": 0.37}, {"measurement": "relative viability", "setting": "NCI-H727; first compound 0.02 µM", "value": 0.917}, {"measurement": "relative viability", "setting": "NCI-H727; first compound 0.2 µM", "value": 0.894}, {"measurement": "relative viability", "setting": "NCI-H727; first compound 0.6325 µM", "value": 0.992}, {"measurement": "relative viability", "setting": "NCI-H727; first compound 2 µM", "value": 0.712}, {"measurement": "relative viability", "setting": "NCI-H23; first compound 0.02 µM", "value": 0.208}, {"measurement": "relative viability", "setting": "NCI-H23; first compound 0.6325 µM", "value": 0.29}, {"measurement": "relative viability", "setting": "NCI-H23; first compound 2 µM", "value": 0.212}, {"measurement": "relative viability", "setting": "LOU-NH91; first compound 0.02 µM", "value": 0.778}, {"measurement": "relative viability", "setting": "LOU-NH91; first compound 0.2 µM", "value": 0.665}, {"measurement": "relative viability", "setting": "LOU-NH91; first compound 0.6325 µM", "value": 0.715}, {"measurement": "relative viability", "setting": "LOU-NH91; first compound 2 µM", "value": 0.641}, {"measurement": "relative viability", "setting": "H3255; first compound 0.02 µM", "value": 0.605}, {"measurement": "relative viability", "setting": "H3255; first compound 0.2 µM", "value": 0.587}, {"measurement": "relative viability", "setting": "H3255; first compound 0.6325 µM", "value": 0.579}, {"measurement": "relative viability", "setting": "H3255; first compound 2 µM", "value": 0.209}, {"measurement": "relative viability", "setting": "PC-3 [JPC-3]; first compound 0.02 µM", "value": 0.824}, {"measurement": "relative viability", "setting": "PC-3 [JPC-3]; first compound 0.2 µM", "value": 0.711}, {"measurement": "relative viability", "setting": "PC-3 [JPC-3]; first compound 0.6325 µM", "value": 0.695}, {"measurement": "relative viability", "setting": "PC-3 [JPC-3]; first compound 2 µM", "value": 0.555}, {"measurement": "relative viability", "setting": "HARA; first compound 0.02 µM", "value": 0.605}, {"measurement": "relative viability", "setting": "HARA; first compound 0.2 µM", "value": 0.367}, {"measurement": "relative viability", "setting": "HARA; first compound 0.6325 µM", "value": 0.465}, {"measurement": "relative viability", "setting": "HARA; first compound 2 µM", "value": 0.381}, {"measurement": "relative viability", "setting": "NCI-H2085; first compound 0.02 µM", "value": 0.531}, {"measurement": "relative viability", "setting": "NCI-H2085; first compound 0.2 µM", "value": 0.478}, {"measurement": "relative viability", "setting": "NCI-H2085; first compound 0.6325 µM", "value": 0.602}, {"measurement": "relative viability", "setting": "NCI-H2085; first compound 2 µM", "value": 0.469}, {"measurement": "relative viability", "setting": "NCI-H2087; first compound 0.02 µM", "value": 0.322}, {"measurement": "relative viability", "setting": "NCI-H2087; first compound 0.2 µM", "value": 0.226}, {"measurement": "relative viability", "setting": "NCI-H2087; first compound 0.6325 µM", "value": 0.27}, {"measurement": "relative viability", "setting": "NCI-H2087; first compound 2 µM", "value": 0.293}, {"measurement": "relative viability", "setting": "NCI-H1650; first compound 0.02 µM", "value": 0.428}, {"measurement": "relative viability", "setting": "NCI-H1650; first compound 0.2 µM", "value": 0.519}, {"measurement": "relative viability", "setting": "NCI-H1650; first compound 0.6325 µM", "value": 0.431}, {"measurement": "relative viability", "setting": "NCI-H1650; first compound 2 µM", "value": 0.365}, {"measurement": "relative viability", "setting": "UMC-11; first compound 0.02 µM", "value": 0.686}, {"measurement": "relative viability", "setting": "UMC-11; first compound 0.2 µM", "value": 0.667}, {"measurement": "relative viability", "setting": "UMC-11; first compound 0.6325 µM", "value": 0.453}, {"measurement": "relative viability", "setting": "UMC-11; first compound 2 µM", "value": 0.533}, {"measurement": "relative viability", "setting": "NCI-H1975; first compound 0.02 µM", "value": 0.45}, {"measurement": "relative viability", "setting": "NCI-H1975; first compound 0.2 µM", "value": 0.37}, {"measurement": "relative viability", "setting": "NCI-H1975; first compound 0.6325 µM", "value": 0.386}, {"measurement": "relative viability", "setting": "NCI-H1975; first compound 2 µM", "value": 0.338}, {"measurement": "relative viability", "setting": "SW 1573; first compound 0.02 µM", "value": 0.512}, {"measurement": "relative viability", "setting": "SW 1573; first compound 0.2 µM", "value": 0.481}, {"measurement": "relative viability", "setting": "SW 1573; first compound 0.6325 µM", "value": 0.458}, {"measurement": "relative viability", "setting": "SW 1573; first compound 2 µM", "value": 0.434}, {"measurement": "relative viability", "setting": "NCI-H838; first compound 0.02 µM", "value": 0.45}, {"measurement": "relative viability", "setting": "NCI-H838; first compound 0.2 µM", "value": 0.417}, {"measurement": "relative viability", "setting": "NCI-H838; first compound 0.6325 µM", "value": 0.467}, {"measurement": "relative viability", "setting": "NCI-H838; first compound 2 µM", "value": 0.411}]}]}
